Experimental data as given in patent US11666517B2, “Antimicrobial composition” (Firmenich SA, priority 2016, dated 2023).
Where two headings read alike, the source gives them in different places.

Assays:
E. coli DSMZ 1103 [1] = test: Fractional Inhibitory Concentration Index (FIC) / MIC, 96-well broth dilution of ingredient combinations; format: cell-based, Escherichia coli; conditions: for MIC: Escherichia coli, DSMZ1103, 24 h, read-out: Concentration of ingredient alone (Minimal Inhibitory Concentration, MIC alone); for FIC: ingredient alone at its MIC
Method: (§1) The method below allows evaluating antimicrobial activity of different raw materials in combination. The Fractional Inhibitory Concentration Index (FIC Index) is a measure of activity (Garcia L. S., Clinical Microbiology Procedures Handbook, pg. 140-162, 3rd Edition (2010), ASM Press, Washington D.C.) and is calculated according to the formula below:
(§2) [formula] where (MICA alone) and (MICB alone) are the Minimal Inhibitory Concentrations (MIC) of individual ingredients A and B when used in isolation, respectively; whereas (MICA combination) and (MICB combination) are the Minimal Inhibitory Concentrations of materials A and B when tested in combination. Ingredient A corresponds to nona-2,6-dien-1-ol and ingredient B stands for 3-neopentylpyridine, 2-methylhexan-3-one oxime, terpineol or 2-isopropyl-5-methylphenol.
(§3) The Minimal Inhibitory Concentration of a material is defined as the lowest concentration of an agent which can inhibit visible bacterial growth (CLSI M08-A8 Methods for dilution Antimicrobial Susceptibility Test for Bacteria That Grow Aerobically; Approved Standard-Eighth Edition).
(§4) Bacterial suspensions of E. coli DSMZ 1103 and S. aureus DSMZ 1104 were prepared as follows: a frozen stock aliquot was streaked on a Tryptic Soy Agar plate, which was then incubated at 37° C. for 24 hours. A single bacterial colony was picked and inoculated into 50 ml of Mueller Hinton Broth contained in a 100 ml-flask. Incubation was performed overnight at 37° C., under agitation (160 rpm). The following day, the overnight culture was diluted into 50 ml of fresh Mueller Hinton Broth at 1:50 and 1:100 for S. aureus and E. coli, respectively. Growth at 37° C. was continued as described above until the absorbance measured at 600 nm reached 0.7-0.9 and 0.3-0.45 for S. aureus and E. coli, respectively. At this point, cells were harvested by centrifugation (10 min—5000×g—4° C.) and suspended in fresh Mueller Hinton Broth at a concentration of 1×10^8 CFU/ml.
(§5) Solutions of raw materials under evaluation (ingredients A and B) were prepared in ethanol and then serially diluted in the desired concentration into 96-well microtiter plates (10 μl per well). Columns 1, 10, 11 and 12 received only 10 μl ethanol without any testing material. The final concentration of ethanol was 5% w/v for all wells.
(§6) Then, 90 μl of cell suspension as prepared above were added to each well of the microtiter plate, with the exception of column 12 which received 90 μl of Mueller Hinton Broth. The final volume of each well was brought to 200 μl with Mueller Hinton Broth. Each plate was sealed and incubated at 37° C. for 24 hours, under agitation (160 rpm). After incubation, plate reading was performed visually by recording wells with visible bacterial growth. Each combination of materials was tested in triplicate. Turbidity due to potential precipitation of raw materials was taken into account by scoring plates containing identical raw material concentrations, without bacteria.

S. aureus DSMZ 1104 = test: as above; format: cell-based, Staphylococcus aureus; conditions: for FIC: ingredient alone at its MIC; for MIC: Staphylococcus aureus, DSMZ1104, 24 h, read-out: Concentration of ingredient alone (Minimal Inhibitory Concentration, MIC alone)
Method: as §1, §2, §3, §4, §5, §6

E. coli DSMZ 1103 [2] = test: BCT test in 50% liquid soap base; format: cell-based, Escherichia coli; conditions: Table 21: single material 0.3% in 50% liquid soap base, contact time 45 sec
Method: Bacterial solutions of the two strains, E. coli DSMZ 1103 and S. aureus DSMZ 1104, were prepared for BCT test as follows. Stock cultures stored at −80° C. were sub-cultured onto Tryptic Soy Agar (TSA) agar plate media, and incubated at 37° C. for 24 h to obtain single colonies. Single colonies of the primary cultures were streaked onto TSA slant and incubate it at 37° C. incubator for 24 h. Bacterial lawns of the slant culture were collected in PBS buffer to make suspensions with the target level of 1-5×10^8 CFU/mL. The 1:100 dilution of each cell suspension in PBS buffer was used as the bacterial solutions for the BCT test.
Test samples of base with synergistic binary mixtures were prepared as follows. Raw materials of the synergistic binary mixtures (Table 17) were mixed with the liquid soap base PGK-10-003 (Table 18). Aliquots (2.5 g) of each mixture were weighed into 20 ml glass tube with a stirrer bar, and added with equal amount of MilliQ water to make 50% suspension as the test samples for the BCT test.
BCT tests were performed in the 20 ml sample tubes. Each sample tube with 5 g of 50% sample suspension was placed onto a magnetic stirrer, and an aliquot of bacterial solution (100 μl) was added to the sample and allowed for a contact of 45 sec during mixing. Then aliquots (0.5 ml) of the mixture were transferred into 5 ml PBS, and further serial dilutions were made in 4.5 ml PBS. Aliquots (0.5 ml) of PBS dilutions were plated onto duplicate plates of TSA plates using the pour plate method. TSA plates were incubated at 37° C. for 48 h. After incubation, colonies on TSA plates were enumerated and log reduction of each sample were calculated against the CFU counts of the control sample (MilliQ water).

C. xerosis ATCC 373 = test: BCT test in 90% roll-on deodorant base; format: cell-based, Corynebacterium xerosis; conditions: Table 25: single material 0.216% in 90% roll-on deodorant base, contact time 120 sec
Method: Bacterial solution of C. xerosis ATCC 373 strain was prepared for BCT test as follows. Stock cultures stored at −80° C. were subcultured onto Tryptic Soy Agar media with 0.5% Tween 80 (TSA-TW80), and incubated at 37° C. for 48 h. The primary cultures were subcultured onto TSA-TW80 again to prepare the secondary cultures. Single colonies of secondary culture were inoculated into 30 ml of Brain Heart Infusion (BHI) broth with 0.5% Tween 80 (BHI-TW80), and incubated at 37° C. 180 rpm for 24 h. Aliquots (1 ml) of the 24 h culture were inoculated into 30 ml of fresh BHI-TW80 broth, and incubated at 37° C. 180 rpm for 48 h. Aliquots (2-3 ml) of the 48 h culture were inoculated into four 50 ml of fresh BHI-TW80 broth medium, and incubated at 37° C. 180 rpm for 4-6 hrs. When the OD reached the target value of 1.6, cells were harvested by centrifugation at 5000 rpm for 10 min, and then resuspended in the same fresh broth media to a target concentration of 10^9 to 10^10 cfu/mL. This suspension was used as the bacterial solution for the BCT test.
Test samples of base with synergistic binary mixtures were prepared as follows. Raw materials of the synergistic binary mixtures were weighed (Table 22), and mixed with 0.3 g PEG-40 Hydrogenated Castor Oil and 9.57 g deodorant roll on base (Table 23).
BCT tests were performed in 15 ml sample tubes. Aliquots (0.9 g) of each sample were weighed into the tube, and an aliquot of bacterial solution (100 μl) was added to the sample and allowed for a contact time of 120 sec with constant mixing. At the end of the contact time, aliquots (9 ml) of BHI broth were added to the tube. The suspensions were mixed well by vortexing, and further 1:10 serial dilutions were made in […] BHI. Aliquots (1 ml) of BHI dilutions were plated onto duplicate plates of TSA-TW80 using pour plate methods. TSA-TW80 plates were incubated at 37° C. for 2-3 days. After incubation, colonies on TSA-TW80 plates were enumerated and log reduction of each sample were calculated against the CFU counts of the control sample (BHI).

[3] = ingredient used in isolation, other ingredient 0 ppm, 37° C., 24 hours

## CC(C)=CCCC(C)=CCO (stereo in doubt) [(Z)-3,7-Dimethyl-2,6-octadien-1-ol]
E. coli DSMZ 1103 [1]; [3]
  MIC: 1200 µg/mL
E. coli DSMZ 1103 [1]; other ingredient 0 ppm
  FIC: 1.000

## COc1ccc(C=O)cc1 [4-Methoxybenzaldehyde]
E. coli DSMZ 1103 [1]; [3]
  MIC: 1200 µg/mL
E. coli DSMZ 1103 [1]; other ingredient 0 ppm
  FIC: 1.000
S. aureus DSMZ 1104; other ingredient 0 ppm
  FIC: 1.00

## CCCC(=NO)C(C)C [2-methylhexan-3-one oxime]
S. aureus DSMZ 1104; [3]
  MIC: 4800 µg/mL
S. aureus DSMZ 1104; other ingredient 0 ppm
  FIC: 1.00

## CC(C)(C)Cc1cccnc1 [3-neopentylpyridine]
E. coli DSMZ 1103 [1]; [3]
  MIC: 600 µg/mL
E. coli DSMZ 1103 [1]; other ingredient 0 ppm
  FIC: 1.000
S. aureus DSMZ 1104; other ingredient 0 ppm
  FIC: 1.00
E. coli DSMZ 1103 [2]
  Average log reduction ± SEM (n = 2): 0.3 ± 0.2 log
C. xerosis ATCC 373
  Log reduction: 5.9 log

## CC1=CCC(C(C)(C)O)CC1 (stereo not drawn) [α-terpineol]
S. aureus DSMZ 1104; [3]
  MIC: 1200 µg/mL

## Cc1ccc(C(C)C)c(O)c1 [2-isopropyl-5-methylphenol]
E. coli DSMZ 1103 [1]; [3]
  MIC: 600 µg/mL
E. coli DSMZ 1103 [1]; other ingredient 0 ppm
  FIC: 1.000
E. coli DSMZ 1103 [2]
  Average log reduction ± SEM (n = 2): 0.4 ± 0.0 log
C. xerosis ATCC 373
  Log reduction: 6.0 log

## CC(C)[C@H]1CC[C@@H](CO)CC1 [cis-4(Isopropyl)cyclohexanemethanol]
E. coli DSMZ 1103 [1]; [3]
  MIC: 9600 µg/mL
E. coli DSMZ 1103 [1]; other ingredient 0 ppm
  FIC: 1.000

## O=Cc1ccc2c(c1)OCO2 [1,3-Benzodioxole-5-carbaldehyde]
E. coli DSMZ 1103 [1]
  MIC: 1200 µg/mL
E. coli DSMZ 1103 [1]; other ingredient 0 ppm
  FIC: 1.000
S. aureus DSMZ 1104
  MIC: 1200 µg/mL
S. aureus DSMZ 1104; other ingredient 0 ppm
  FIC: 1.00

## CC/C=C\CC/C=C/CO [(2E,6Z)-nona-2,6-dien-1-ol]
E. coli DSMZ 1103 [1]; other ingredient 0 ppm
  FIC: 1.000
S. aureus DSMZ 1104; other ingredient 0 ppm
  FIC: 1.00
E. coli DSMZ 1103 [2]
  Average log reduction ± SEM (n = 2): 0.3 ± 0.2 log
C. xerosis ATCC 373
  Log reduction: 5.7 log
